This note sets out measurements from PubChem BioAssay (NCI).

What all share (assay): NCI-60 cell line screen, 48 h
Assay [1] relates to CAKI-1 renal.
Assay [2] relates to CCRF-CEM leukemia.
Assay [3] concerns EKVX NSCLC.
For assay [4], the system named is HOP-92 NSCLC.
The test system of assay [5] is MCF7 breast.
For assay [6], the system named is MDA-MB-231 breast.
Assay [7] deals with OVCAR-4 ovarian.
In assay [8] the test system is PC-3 prostate.
Assay [9] deals with RPMI-8226 leukemia.
For assay [10], the system named is RXF 393 renal.
For assay [11], the system named is SF-268 CNS.
Assay [12] relates to SK-MEL-2 melanoma.
Assay [13] relates to SNB-19 CNS.
For assay [14], the system named is SNB-75 CNS.
Assay [15] deals with UACC-62 melanoma.
The subject of assay [16] is HCC-2998 colon.
Assay [17] deals with UACC-257 melanoma.
Assay [18] relates to SR leukemia.

Each structure is given as a SMILES string.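 Five compound concentrations were applied to cells in 96-well plates for 48 hours; endpoints were derived by simple linear interpolation of the resulting dose-response curve. At the TGI there is no net growth.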

Regarding `CN(C)CCCNC(=O)c1cc(NC(=O)CCCn2c3ccccc3c3ccccc32)cn1C`, the TGI is over 100 µM in [1]; over 100 µM in [2]; 92 µM in assay [3]; 9.32 µM in [4]; over 100 µM in assay [5]; over 100 µM in [6]. In addition, the TGI in assay [7], in assay [8], in assay [9], in [10], in assay [11] and in [12] was over 100 µM in each case. Besides, the TGI in assay [13], in assay [14] and in assay [15] was over 100 µM each time.
Turning to `O=c1[nH]ncc2[nH]c3c(c12)CCCc1ccccc1-3`, the TGI in assay [1] is over 100 µM; in [2], over 100 µM; in assay [3], 51.7 µM; in [16], 61.4 µM; in assay [4], over 100 µM; in [5], over 100 µM. The TGI in assay [7] is over 100 µM; in [8] it was over 100 µM; in assay [9], 84.9 µM; in [10] it was 41.9 µM; in assay [11] it was over 100 µM; in [12], over 100 µM. The TGI in assay [13], in assay [17] and in assay [15] was over 100 µM in each case.
As to `CC1(Br)C(=O)NC(=O)N([C@H]2C[C@H](O)[C@@H](CO)O2)C1N=[N+]=[N-]` (some centres not stated), the TGI in assay [1], in assay [2], in assay [3], in assay [16], in [4] and in assay [7] was over 100 µM throughout. Moreover, the TGI in assay [9], in assay [10], in assay [11], in [12], in assay [13] and in assay [14] was over 100 µM throughout. Moreover, the TGI in assay [18], in [17] and in assay [15] was over 100 µM each time.
For the compound `c1ccc(SCCP(CCP(c2ccccc2)c2ccccc2)c2ccccc2)cc1` (configuration not stated), the TGI was 63.3 µM in assay [1]; over 100 µM in assay [2]; over 67.5 µM in assay [3]; over 100 µM in assay [16]; 15.1 µM in assay [4]; over 100 µM in [5]. Further, the TGI in assay [6] was over 100 µM; in assay [7], 97.1 µM; in assay [9] it was over 66.3 µM; in assay [10], over 100 µM; in assay [11] it was over 100 µM; in [12], 7.52 µM. The TGI in [13] is over 100 µM; in assay [14] it was over 19.6 µM; in assay [17], over 74.7 µM.
In the case of `COc1cccc2c1[C@H](OC)[C@]13O[C@@]1(C2=O)[C@H](O)[C@H](C)[C@@](O)(C(=O)[C@@H]1O[C@H]1C)[C@@H]3O`, the TGI in assay [1] was 0.88 µM; in assay [2], 0.555 µM; in assay [3], 0.616 µM; in assay [4], 0.723 µM; in assay [5] it was 4.86 µM; in [6] it was 0.977 µM. The TGI amounted to 0.555 µM in assay [7]; 0.411 µM in assay [9]; 1.1 µM in assay [10]; 1.22 µM in [11]; 0.384 µM in assay [12]; 0.544 µM in assay [14]. The TGI turned out to be 0.527 µM in [17] and 0.877 µM in [15].
Consider `S=c1scc(-c2ccc(Cl)cc2)n1OC1CCCC1`, for which the TGI in assay [1] was over 100 µM; in assay [3] it was over 100 µM; in [16], 71.2 µM; in [4], over 100 µM; in [5], 81.6 µM; in assay [6], over 100 µM. In addition, the TGI in [7] is over 100 µM; in [8], over 100 µM; in assay [10], over 100 µM; in assay [11], over 100 µM; in [12], 44.6 µM; in [13], over 100 µM. In addition, the TGI in assay [14], in [17] and in [15] was over 100 µM in each case.
Consider `COC(=O)c1ccccc1C1CN=NC12Cc1c(C)c3c(c(C)c1C2=O)CCC3` (configuration not stated), for which the TGI in assay [1], in assay [2], in [3], in assay [16], in assay [4] and in [5] was over 100 µM throughout. Besides, the TGI in [6], in assay [7], in [8], in assay [10], in assay [11] and in assay [12] was over 100 µM in each case. Further, the TGI in assay [13], in [14], in assay [17] and in assay [15] was over 100 µM each time.
Consider `CCOC(=O)c1c(SCC#N)n(-c2ccccc2)c(=S)n(-c2ccccc2)c1=O`, for which the TGI in assay [1] is over 100 µM; in assay [2], over 100 µM; in assay [3], over 100 µM; in assay [4], 93.3 µM; in assay [5], over 100 µM; in assay [7], over 100 µM. For the same compound, the TGI in assay [8] was over 100 µM; in assay [9], over 100 µM; in assay [11] it was over 100 µM; in [12], over 100 µM; in assay [13], over 100 µM; in assay [14] it was 90.3 µM. Also, the TGI in assay [18], in assay [17] and in assay [15] was over 100 µM each time.
Consider `CC1=CC(=O)c2cccc(O)c2C1=O`, for which the TGI in assay [1] came to 3.29 µM; in [2], 14.7 µM; in [3], 8.68 µM; in assay [16], 16.8 µM; in assay [4], 3.29 µM; in assay [6], 3.15 µM. Further, the TGI in assay [7] is 3.39 µM; in assay [8], 5.7 µM; in [9], over 40.3 µM; in assay [10] it was 3.36 µM; in [11] it was 14.6 µM; in [12] it was 4.57 µM. In addition, the TGI is 17.4 µM in [13]; 18 µM in [14]; over 21.9 µM in [18]; 3.36 µM in assay [17]; 3.68 µM in assay [15].
